Experiments:
[1] = system: RBL-2H3 cell line; assay: Intracellular calcium movement (fura-2 fluorescence); format: cell-based; conditions: RBL-2H3 cells, fura-2, FIGS. 1a to 1d
Method: First, the following experiment for calcium movement was performed in order to determine whether the above sphingosine kinase activator compounds activate sphingosine-1-phosphate, so as to cause intracellular calcium movement, which is a typical activity specific to sphingosine-1-phosphate.
The sphingosine kinase activator compounds were determined for capability of inducing intracellular calcium movement by using a RBL-2H3 cell line, which is one of the typical cell lines showing intracellular calcium movement. The cells are cultured by using an RPMI 1640 culture medium and the cells were washed simultaneously with removal of the medium. Then, 10 μM of fura-2/Am and 250 μl M of sulfinpyrazone were added thereto, followed by incubation for 30 minutes. Cell pellets were obtained by centrifugal separation and the cell pellets were dispersed in Ca^2+-free Locke's solution. The dispersion was divided into a unit of 1×10^6 cells for use in treating samples. Next, the cells were introduced into a cuvet of a fluorescence microscope, each sphingosine kinase activator compound was added thereto, and intracellular calcium movement was observed by the fluorescence microscope (RF-5310PC, Spectrofluoro photometer, SHIMADZU). When intracellular calcium ions are detected, they cause fluorescence by bonding with fura-2. Therefore, a degree of calcium movement caused by a sample was evaluated by calculating a difference between the measurement of fura-2 ([…]) bonded with calcium and that of non-bonded fura-2 ([…]).

[2] = system: fibroblasts; assay: Collagen synthesis in fibroblasts (PICP, collagen measuring kit); format: cell-based; conditions: 72 hours; for Amount of PICP produced in fibroblasts (average ± SEM): non-treated control 47.1 ± 9.7; for collagen synthesis increase as compared to the non-treated control: fibroblasts, 0.3 or 1.0 μg/ml (concentration not given)
Method: The following experiment was performed by using fibroblasts in order to evaluate the effect of sphingosine kinase activator upon collagen synthesis.
Each of K6PC4, K6PC-5, K6PC-7 and K6PC-9 was dissolved in DMSO at a concentration of 0.3 and 1.0 μg/ml. The solutions were used as samples and analyzed for collagen synthesis after incubation for 72 hours. 72 hours after the treatment of the sample, culture solution was discarded, cells were washed with serum-free DMEM three times, and cells were cultured again by using flesh serum-free DMEM. After incubation, supernatant in each well was combined and analyzed for the amount of PICP (procollagen type I C-peptide) by using a collagen measuring kit. The standard solution contained in the collagen measuring kit was diluted with a sample and absorption at 450 nm was measured to construct a standard concentration curve (see the following Table 2).
To an antibody-coated microtiter plate comprising a primary collagen antibody applied unifomrily thereto, 100 μl of an antibody-POD conjugate solution and the cell supernatant collected as described above were added, followed by incubation at 37° C. for 3 hours, to induce an antigen-antibody reaction. Then, the reaction mixture was subjected to washing and color developing. After the reaction, the reaction mixture developed a yellow color, wherein the yellowness depended on reaction degrees. Also, 96 well plates developing a yellow color were determined at 450 nm by using a microtiter plate reader.

[3] = system: keratinocytes; assay: Differentiation of keratinocytes (western blotting of involucrin and keratin-1); format: cell-based; conditions: 10 μM, 48 hours, FIG. 2
Method: In order to evaluate the effect of the above compound according to the present invention upon differentiation of keratinocytes, each of K6PC4, K6PC-5, K6PC-7 and K6PC-9 was dissolved in DMSO at a concentration of 10 μM and used as sample. Evaluation was performed by using the western blotting method. As differentiation markers, involucrin and keratine-1, which were differentiation markers of keratinocytes, were measured. Next, 48 hours after the treatment of samples, the culture solution was discarded and the cells were washed with PBS and collected by filtering. The collected cells were washed again and subjected to centrifugal separation to remove supernatant. The cells were dissolved in a solvent and subjected to centrifugal separation at 12,000 rpm for 10 minutes, thereby removing cell membranes, etc. Protein concentration was determined by the Bradford method. Proteins were separated by mini gel type SDS-PAGE (polyacrylamide gel electrohoresis) and transferred to a PVDF (polyvinylidene fluoride) membrane at 100V for 1 hour, so that gel-like proteins were subjected to blotting with a transfer membrane. Then, the membrane was colored with Ponceau S solution to determine whether transfer was accomplished or not. The membrane was blocked by using TTBS (TBS+0.1% Tween 20) solution containing 5% non-fat dried milk. In order to check the amount of involucrin as differentiation marker of keratinocytes, primary antibody involucrin (Neomarkers Co.) was diluted at a ratio of about 1/200 to 1.400, and keratin-1 (Covance Co.) was diluted at a ratio of about 1/1000. Reactions were performed overnight at 4° C. As secondary antibody, anti-mouse IgG and anti-rabbit IgG combined with horseradish peroxidase (HRP) was diluted at a ratio of 1:2000. Then, the secondary antibody was bonded to the primary antibody by making them react at room temperature for 1 hour. The membrane was washed with TTBS three times, reacted with an ECL substrate (Amersham Co.) for 1-3 minutes, and exposed to X-ray films.

[4] = biological target: T1, sphingosine kinase (Mus musculus, UniProt Q8CI15); assay: Activation of sphingosine kinase (C17-sphingosine-1-phosphate production, HPLC); format: cell-based; conditions: F9-12 cells, 24 hours, 50 μM compound, PMA 300 nM; for C17-SIP Production: non-treated control 51.72; for increase in production of sphingosine-1-phosphate: versus non-treated control
T1 construct: host or cells: F9-12 cells
T1 sequence (Q8CI15 1-381 isoform Q8CI15-3): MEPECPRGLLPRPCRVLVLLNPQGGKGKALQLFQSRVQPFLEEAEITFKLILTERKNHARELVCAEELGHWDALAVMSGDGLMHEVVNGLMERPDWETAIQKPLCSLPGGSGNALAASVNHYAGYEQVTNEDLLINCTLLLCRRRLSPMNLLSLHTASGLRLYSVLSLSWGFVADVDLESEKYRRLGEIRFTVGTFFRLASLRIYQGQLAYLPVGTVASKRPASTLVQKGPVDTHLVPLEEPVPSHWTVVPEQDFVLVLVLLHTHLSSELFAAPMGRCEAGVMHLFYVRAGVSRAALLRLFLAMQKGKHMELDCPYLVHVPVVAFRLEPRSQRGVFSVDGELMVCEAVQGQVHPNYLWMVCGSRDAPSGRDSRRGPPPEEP
Method: The following test for activation of sphingosine kinase was performed to determine whether the effects of the above compounds upon intracellular calcium signal transfer as described in Example 1 were caused by activation of sphingosine kinase.
F9-12 cells were treated with 300 nM of PMA ([…]) as positive control, and 50 μM of each of K6PC4 and K6PC-5 for 24 hours and collected. Then, activity of sphingosine kinase was measured as production of C17-sphingosine-1-phosphate based on 50 μg of protein. Sphingosine-1-phospate was extracted from the collected cells by the steps of: (1) treating with trypsin-EDTA, (2) centrifugal separation at 1,500 rpm for 10 minutes, and (3) washing with PBS, followed by freeze-drying. Then, PBS was added to the freeze-dried product and the resultant product was treated with ultrasonic waves to destroy cells. Sphingosine-1-phosphate was determined by HPLC, and OPA (o-phthalaldehyde) reagent and boric acid buffer were added to the extracted sample and the mixture was reacted at room temperature for 20 minutes. For the HPLC quantitive analysis, fluorescence intensity was measured at each wavelength of 340 nm and 455 nm with a solution in 90% acetonitrile, and a ratio to the internal standard was calculated.

[5] = system: hairless mouse; format: in vivo; conditions: mouse, in vivo
Excerpt: To evaluate effect of the sphingosine kinase activator upon inhibition of steroid side effects, a steroid was applied to a hairless mouse. Typically, side effects caused by long-term or excessive dose of steroids include skin atrophy expressed by thinning of skin and weakening of skin functions, and a rebound phenomenon including reoccurrence of conditions caused by stopping use of steroids. It is reported that the main cause for such side effects is inhibition of fibroblast activity and a decrease in collagen production (S. Hammer et al., J. Cell. Biochem, 91, 840-851, 2004), Therefore, it is expected that the compound according to the present invention enhances collagen synthesis and differentiation of keratinocytes, and thus inhibits such side effects caused by steroids. To perform a test, a steroid, i.e. 0.05% chlobetason-17-propionate, and […]-5 according to the present invention (1.0% in PEG:EtOH=7:3) were applied to a hairless mouse and changes in the skin were observed. The treating agents were applied to the back of a hairless mouse 9 times per day and the tissue was collected. Then, the epidermis and dermis were observed by carrying out the H & E staining method (hematoxylin and eosin staining) known to one skilled in the art.

Row | SMILES | C17-SIP Production [4] [pmol/min/mg] | increase in production of sphingosine-1-phosphate [4] | intracellular calcium movement [1] | Amount of PICP produced in fibroblasts (average ± SEM) ([2]; 0.3 μg/ml) | Amount of PICP produced in fibroblasts (average ± SEM) ([2]; 1.0 μg/ml) | collagen synthesis increase as compared to the non-treated control [2] | expression of differentiation markers (involucrin, keratin-1) [3] | changes in epidermis and dermis (steroid applied alone) [5]
1 | CCCCCCCCCCCCCC(=O)O[C@@H]1[C@@H](C)[C@@]2(O)[C@@H](C=C(CO)C[C@]3(O)C(=O)C(C)=C[C@@H]23)[C@@H]2C(C)(C)[C@]12OC(C)=O [PMA, phorbol microstate acetate, reference compound] | 76.76 | about 48% | – | – | – | – | – | –
2 | CCC(=O)O[C@]1(C(=O)CCl)[C@@H](C)C[C@H]2[C@@H]3CCC4=CC(=O)C=C[C@]4(C)[C@@]3(F)[C@@H](O)C[C@@]21C [chlobetason-17-propionate, reference compound] | – | – | – | – | – | – | – | significant thinning of the epidermis and abnormal changes in the dermis

Second part, led by results:

Row | C17-SIP Production [4] [pmol/min/mg] | increase in production of sphingosine-1-phosphate [4] | SMILES | intracellular calcium movement [1] | Amount of PICP produced in fibroblasts (average ± SEM) ([2]; 0.3 μg/ml) | Amount of PICP produced in fibroblasts (average ± SEM) ([2]; 1.0 μg/ml) | collagen synthesis increase as compared to the non-treated control [2] | expression of differentiation markers (involucrin, keratin-1) [3] | changes in epidermis and dermis (steroid applied alone) [5]
3 | 67.69 | about 30% | CCCCCCCC(=O)C(CCCCCC)C(=O)NCC(O)CO (stereo not drawn) [K6PC-4, N-(2,3-dihydroxypropyl)-2-hexyl-3-oxo-decanamide] | caused intracellular calcium movement | 62.01 ± 2.5 | 80.51 ± 4.4 | about 1.7 times | expressed the differentiation markers | –
4 | 75.51 | about 46% | CCCCCCCC(=O)C(CCCCCC)C(=O)NC(C)(CO)CO (stereo not drawn) [K6PC-7, N-(2-methyl-1,3-dihydroxyisopropyl)-2-hexyl-3-oxo-decanamide] | caused intracellular calcium movement | 90.3 ± 12.5 | 87.3 ± 14.9 | about 1.9 times | expressed the differentiation markers | –
5 | 66.72 | about 30% | CCCCCCCC(=O)C(CCCCCC)C(=O)NCCO (stereo not drawn) [K6PC-9, N-ethanol-2-hexyl-3-oxo-decanamide] | caused intracellular calcium movement | 95.0 ± 5.2 | 86.7 ± 8.2 | about 2.0 times | expressed the differentiation markers | –
